Experimental findings from US11560385B2, “Proteasome activity enhancing compounds” (Proteostasis Therapeutics, Inc., priority 2018, dated 2023) are described below.

T1 sequence (P54578 whole entry, looked up): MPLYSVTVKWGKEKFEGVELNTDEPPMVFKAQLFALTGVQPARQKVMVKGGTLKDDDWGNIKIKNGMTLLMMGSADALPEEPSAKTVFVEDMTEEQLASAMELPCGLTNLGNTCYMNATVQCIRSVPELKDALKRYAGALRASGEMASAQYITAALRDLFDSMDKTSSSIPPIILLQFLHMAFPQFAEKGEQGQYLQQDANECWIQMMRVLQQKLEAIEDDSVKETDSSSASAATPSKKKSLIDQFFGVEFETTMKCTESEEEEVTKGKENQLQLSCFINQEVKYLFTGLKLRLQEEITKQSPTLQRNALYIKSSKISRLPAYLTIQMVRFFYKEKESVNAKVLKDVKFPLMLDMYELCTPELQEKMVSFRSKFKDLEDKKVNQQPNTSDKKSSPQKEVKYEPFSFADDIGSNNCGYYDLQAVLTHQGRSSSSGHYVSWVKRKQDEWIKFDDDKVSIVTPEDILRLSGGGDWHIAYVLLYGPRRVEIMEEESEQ

In the first assay the target is T1, USP14 (Homo sapiens (Human), UniProt P54578). Briefly: Usp14 inhibition assay (Example 57B, B-series compounds). Conditions: IC50 class; average value from a minimum of two experimental determinations. In kind it is biochemical. An excerpt:
Example 57B: Usp14 Inhibition Assay
(§1) The IC50 values in the Table below represent the average value from a minimum of two experimental determinations.
Broadly, the IC50 is the concentration needed to halve the response being measured. Regarding `COC1C[C@H]2CC[C@H](C1)N2CC(=O)c1cc(C)n(-c2ccc(C#N)cc2)c1C` (stereo partly drawn) [Example 88B, 4-(3-(2-((1R,3r,5S)-3-Methoxy-8-azabicyclo[3.2.1]octan-8-yl)acetyl)-2,5-dimethyl-1H-pyrrol-1-yl)benzonitrile], the IC50 fell in the range of 50 to 500 nM.

`COC1C[C@H]2CC[C@H](C1)N2CC(=O)c1cc(C)n(-c2ccc(C#N)cc2)c1C` (stereo partly drawn) [Example 89B, 4-(3-(2-((1R,3s,5S)-3-Methoxy-8-azabicyclo[3.2.1]octan-8-yl)acetyl)-2,5-dimethyl-1H-pyrrol-1-yl)benzonitrile] had an IC50 of 50 to 500 nM.

In turn, `Cc1c(F)c(C(=O)CN2C3CCC2CC3)c(C)n1-c1ccc(C#N)cc1` [Example 104B, 4-(3-(2-((1s,4s)-7-Azabicyclo[2.2.1]heptan-7-yl)acetyl)-4-fluoro-2,5-dimethyl-1H-pyrrol-1-yl)benzonitrile] gave an IC50 of 50 to 500 nM. The same measure, in the same setting: with `Cc1cc(C(=O)CN2[C@@H]3CC[C@H]2[C@@H](C)[C@H]3C)c(C)n1-c1ccc(C#N)cc1` [Example 124B, 4-(3-(2-((1R,2R,3S,4S)-2,3-Dimethyl-7-azabicyclo[2.2.1]heptan-7-yl)acetyl)-2,5-dimethyl-1H-pyrrol-1-yl)benzonitrile] the figure was 50 to 500 nM; with `Cc1cc(C(=O)CN2C3CCC2(C)CC3)c(C)n1-c1ccc(C#N)cc1` [Example 125B, 4-(2,5-Dimethyl-3-(2-(1-methyl-7-azabicyclo[2.2.1]heptan-7-yl)acetyl)-1H-pyrrol-1-yl)benzonitrile], 50 to 500 nM. `Cc1cc(C(=O)CN2C3CCC2(CO)CC3)c(C)n1-c1ccc(C#N)cc1` [Example 126B, 4-(3-(2-(1-(Hydroxymethyl)-7-azabicyclo[2.2.1]heptan-7-yl)acetyl)-2,5-dimethyl-1H-pyrrol-1-yl)benzonitrile] gave an IC50 of 50 to 500 nM. In turn, `Cc1cc(C(=O)CN2C3CCC2(C(=O)O)CC3)c(C)n1-c1ccc(C#N)cc1` [Example 127B, 7-(2-(1-(4-Cyanophenyl)-2,5-dimethyl-1H-pyrrol-3-yl)-2-oxoethyl)-7-azabicyclo[2.2.1]heptane-1-carboxylic Acid] yielded a half-maximal inhibitory concentration (IC50) above 500 nM. In turn, `Cc1nc(Cc2c(Cl)c(C(=O)CN3C4CCC3[C@@H](O)C4)c(C)n2-c2ccc(C#N)cc2)cs1` (stereo partly shown) [Example 128B] returned a 50% inhibitory concentration (IC50) below 50 nM. For `Cc1c(C(=O)CN2C3CCC2CC3)cc(C#N)n1-c1ccc(C#N)cc1` [Example 137B, 4-(2-(7-Azabicyclo[2.2.1]heptan-7-yl)acetyl)-1-(4-cyanophenyl)-5-methyl-1H-pyrrole-2-carbonitrile], the IC50 is below 50 nM.

In the case of `Cc1cc(C(=O)CN2[C@@H]3CC[C@H]2[C@H](C)[C@@H]3C)c(C)n1-c1ccc(C#N)cc1` [Example 138B, 4-(3-(2-((1R,2S,3R,4S)-2,3-Dimethyl-7-azabicyclo[2.2.1]heptan-7-yl)acetyl)-2,5-dimethyl-1H-pyrrol-1-yl)benzonitrile], the IC50 is above 500 nM.

The target of another assay is T1, USP14. Briefly: Usp14 inhibition assay (Example 5A, A-series compounds). In kind it is biochemical. Conditions: average value from a minimum of two experimental determinations; read-out: Usp14 IC50 Category.
Text: Example 5A: Usp14 Inhibition Assay
as §1
For the molecule `Cc1c(C(=O)CN2C3CCC2[C@@H](O)C3)c2ccc(CCC#N)cc2n1-c1ccc(Cl)cc1` (mixture of isomers) [Example 10A, (±)-3-(1-(4-Chlorophenyl)-3-(2-((2S)-2-hydroxy-7-azabicyclo[2.2.1]heptan-7-yl)acetyl)-2-methyl-1H-indol-6-yl)propanenitrile], the IC50 is below 50 nM. Still for that read-out and setting: then `CO[C@H]1CC2CCC1N2CC(=O)c1c(C)n(-c2ccc(Cl)cc2)c2cc(CCC#N)ccc12` (mixture of isomers) [Example 15A, (±)-3-(1-(4-Chlorophenyl)-3-(2-((2S)-2-methoxy-7-azabicyclo[2.2.1]heptan-7-yl)acetyl)-2-methyl-1H-indol-6-yl)propanenitrile], with below 50 nM; and `Cc1c(C(=O)CN2C3CCC2[C@@H](O)C3)c2ccc(CCCC#N)cc2n1-c1ccc(Cl)cc1` (mixture of isomers) [Example 18A, (±)-4-(1-(4-Chlorophenyl)-3-(2-((2S)-2-hydroxy-7-azabicyclo[2.2.1]heptan-7-yl)acetyl)-2-methyl-1H-indol-6-yl)butanenitrile], with below 50 nM. Still for that read-out and setting: with `CO[C@H]1CC2CCC1N2CC(=O)c1c(C)n(-c2ccc(Cl)cc2)c2cc(CCCC#N)ccc12` (mixture of isomers) [Example 19A, (±)-4-(1-(4-Chlorophenyl)-3-(2-((2S)-2-methoxy-7-azabicyclo[2.2.1]heptan-7-yl)acetyl)-2-methyl-1H-indol-6-yl)butanenitrile] the figure was below 50 nM. The same measure, in the same setting: with `Cc1c(C(=O)CN2C3CCC2C(O)C3)c2ccc(CC3COC3)cc2n1-c1ccc(Cl)cc1` (stereo in doubt) [Example 13A, 1-(1-(4-Chlorophenyl)-2-methyl-6-(oxetan-3-ylmethyl)-1H-indol-3-yl)-2-((1R,2R,4S)-2-hydroxy-7-azabicyclo[2.2.1]heptan-7-yl)ethan-1-one] the figure was below 50 nM; with `Cc1c(C(=O)CN2C3CC[C@@H]2C[C@](O)(C(C)(C)C)C3)c2ccc(CCC#N)cc2n1-c1ccc(Cl)cc1` (stereo in doubt) [Example 31A, 3-(3-(2-(3-(tert-Butyl)-3-hydroxy-8-azabicyclo[3.2.1]octan-8-yl)acetyl)-1-(4-chlorophenyl)-2-methyl-1H-indol-6-yl)propanenitrile], above 100 nM. For `Cc1c(C(=O)CN2C3CCC2CC3)c2ccc(CCS(C)(=O)=O)cc2n1-c1ccc(Cl)cc1` [Example 1A, 2-(7-Azabicyclo[2.2.1]heptan-7-yl)-1-(1-(4-chlorophenyl)-2-methyl-6-(2-(methylsulfonyl)ethyl)-1H-indol-3-yl)ethan-1-one], the IC50 is below 50 nM. On the same count and under the same terms, with `Cc1c(C(=O)CN2[C@@H]3CCC[C@H]2CC3)c2ccc(CCS(C)(=O)=O)cc2n1-c1ccc(Cl)cc1` [Example 2A, 2-((1R,5S)-8-Azabicyclo[3.2.1]octan-8-yl)-1-(1-(4-chlorophenyl)-2-methyl-6-(2-(methylsulfonyl)ethyl)-1H-indol-3-yl)ethan-1-one] the figure was below 50 nM; with `Cc1c(C(=O)CN2C3CCC2CC3)c2ccc(CS(C)(=O)=O)cc2n1-c1ccc(Cl)cc1` [Example 3A, 2-(7-Azabicyclo[2.2.1]heptan-7-yl)-1-(1-(4-chlorophenyl)-2-methyl-6-((methylsulfonyl)methyl)-1H-indol-3-yl)ethan-1-one], 50 to 100 nM. Same read-out and setting: with `Cc1c(C(=O)CN2C3CCC2CC(O)C3)c2ccc(CCS(C)(=O)=O)cc2n1-c1ccc(Cl)cc1` [Example 5A, 1-(1-(4-Chlorophenyl)-2-methyl-6-(2-(methylsulfonyl)ethyl)-1H-indol-3-yl)-2-((1R,3S,5S)-3-hydroxy-8-azabicyclo[3.2.1]octan-8-yl)ethan-1-one] the figure was below 50 nM; with `Cc1c(C(=O)CN2[C@H]3CC[C@@H]2[C@@H](O)C3)c2ccc(CCS(C)(=O)=O)cc2n1-c1ccc(Cl)cc1` [Example 6A, 1-(1-(4-Chlorophenyl)-2-methyl-6-(2-(methylsulfonyl)ethyl)-1H-indol-3-yl)-2-((1R,2S,4S)-2-hydroxy-7-azabicyclo[2.2.1]heptan-7-yl)ethan-1-one], below 50 nM.

Consider `Cc1c(C(=O)CN2CCC(O)CC2)c2ccc(CCS(C)(=O)=O)cc2n1-c1ccc(Cl)cc1` [Example 7A, 1-(1-(4-Chlorophenyl)-2-methyl-6-(2-(methylsulfonyl)ethyl)-1H-indol-3-yl)-2-(4-hydroxypiperidin-1-yl)ethan-1-one], for which the IC50 is below 50 nM. As to `Cc1c(C(=O)CN2C3CCC2CC3)c2ccc(CCC#N)cc2n1-c1ccc(Cl)cc1` [Example 8A, 3-(3-(2-(7-Azabicyclo[2.2.1]heptan-7-yl)acetyl)-1-(4-chlorophenyl)-2-methyl-1H-indol-6-yl)propanenitrile], the half-maximal inhibitory concentration (IC50) is below 50 nM. Same read-out and setting: then `Cc1c(C(=O)CN2CCC(O)CC2)c2ccc(CCC#N)cc2n1-c1ccc(Cl)cc1` [Example 9A], with above 100 nM; and `Cc1c(C(=O)CN2C3CCC2CC3)c2ccc(CC3COC3)cc2n1-c1ccc(Cl)cc1` [Example 11A, 2-(7-Azabicyclo[2.2.1]heptan-7-yl)-1-(1-(4-chlorophenyl)-2-methyl-6-(oxetan-3-ylmethyl)-1H-indol-3-yl)ethan-1-one], with below 50 nM; and `CO[C@H]1C[C@@H]2CC[C@H]1N2CC(=O)c1c(C)n(-c2ccc(Cl)cc2)c2cc(CC3COC3)ccc12` [Example 12A, 1-(1-(4-Chlorophenyl)-2-methyl-6-(oxetan-3-ylmethyl)-1H-indol-3-yl)-2-((1R,2S,4S)-2-methoxy-7-azabicyclo[2.2.1]heptan-7-yl)ethan-1-one], with 50 to 100 nM. On the same count and under the same terms, then `Cc1c(C(=O)CN2CCC(O)CC2)c2ccc(CC3COC3)cc2n1-c1ccc(Cl)cc1` [Example 14A, 1-(1-(4-Chlorophenyl)-2-methyl-6-(oxetan-3-ylmethyl)-1H-indol-3-yl)-2-(4-hydroxypiperidin-1-yl)ethan-1-one], with 50 to 100 nM; and `Cc1c(C(=O)CN2C3CCC2CC3)c2ccc(CCS(=O)(=O)C3CC3)cc2n1-c1ccc(Cl)cc1` [Example 16A, 2-(7-Azabicyclo[2.2.1]heptan-7-yl)-1-(1-(4-chlorophenyl)-6-(2-(cyclopropylsulfonyl)ethyl)-2-methyl-1H-indol-3-yl)ethan-1-one], with below 50 nM; and `Cc1c(C(=O)CN2C3CCC2CC3)c2ccc(CCCC#N)cc2n1-c1ccc(Cl)cc1` [Example 17A, 4-(3-(2-(7-Azabicyclo[2.2.1]heptan-7-yl)acetyl)-1-(4-chlorophenyl)-2-methyl-1H-indol-6-yl)butanenitrile], with below 50 nM. Same read-out and setting: with `Cc1c(C(=O)CN2C3CCC2CC(O)C3)c2ccc(CCC#N)cc2n1-c1ccc(Cl)cc1` [Example 20A, 3-(1-(4-Chlorophenyl)-3-(2-((1R,3R,5S)-3-hydroxy-8-azabicyclo[3.2.1]octan-8-yl)acetyl)-2-methyl-1H-indol-6-yl)propanenitrile] the figure was above 100 nM; with `Cc1c(C(=O)CN2[C@@H]3CC[C@H]2C[C@H](O)C3)c2ccc(CCC#N)cc2n1-c1ccc(Cl)cc1` [Example 21A, 3-(1-(4-Chlorophenyl)-3-(2-((1R,3S,5S)-3-hydroxy-8-azabicyclo[3.2.1]octan-8-yl)acetyl)-2-methyl-1H-indol-6-yl)propanenitrile], 50 to 100 nM.
